Read-outs that look alike come from different tables or passages of the source. Residues, ends and D or L forms follow the SMILES beside them. No end group written: not given here.
Legend:
[1] = EL-4 cytotoxicity by chromium release; type: cell-based; conditions: for cytotoxicity at 30 min, 100 μM: mouse, EL-4 cells
Experimental: (§1) The EL-4 cells were then incubated for 30 minutes in the presence of various peptides at different concentrations. Cytotoxicity was taken as a percentage of chromium released (measured in the culture supernatant) relative to the chromium released by EL-4 cells lysed by detergent.
(§2) Similar chromium release data were obtained using the same procedure with a 100 μM concentration of peptide, but with EL-4 cell concentrations of 2×10^6, 10^6, and 5×10^5 cells in 0.5 ml medium.
(§3) The chromium release data was also obtained by using the supernatant from unlabeled EL-4 cells cultured for 30 minutes in the presence of 100 μM peptide as medium for […] EL-4 cultured as described above. The percent cytotoxicity calculated as described above was 20.16 for cecropin SB-37, 19.73 for *cecropin SB-37, 41.96 for Shiva 1, and 106.67 for melittin.

[2] = tested on: EL-4 cells; assay: EL-4 cytotoxicity by chromium release; type: cell-based; conditions: 30 minutes, 10^6 EL-4 cells
Experimental: as §1, §2, §3

[3] = tested on: Saccharomyces cerevisiae; assay: Effect of lytic peptides on S. cerevisiae (plate count); conditions: 1 hour at 37° C., PBS pH 6.8, 500 at 0 μM
[4] = tested on: T. cruzi intracellular amastigotes in Vero cells; assay: In vitro effect on T. cruzi intracellular amastigotes in Vero cells; type: cell-based, Trypanosoma cruzi; conditions: one hour period, relative to no peptide
Experimental: Vero cells at 10^5 cells/ml in MEM-FBS were mixed with Trypanosoma Cruzi in the trypomastigote stage at 10^5 cells/ml in the same medium at a 1:1 ratio of Vero cells to trypomastigotes. The mixture of Vero cells and trypomastigotes was cultured at 37° C. in a 5% CO2 atmosphere in microscope slide chambers. At 24 hours, cecropin SB-37 was added to the chambers, except for a set of controls, at a final concentration of 100 μM. […]

[5] = EL-4 cell viability by trypan blue exclusion; type: cell-based; conditions: one hour, 95% at 0 μM
Experimental: EL-4 lymphoma cells were suspended in RPMI 1640 at 5,000,000/ml with 500,000 cells per well. Various concentrations of cecropin SB-37 and Shiva 1 were added and the wells incubated at 37° C. in a 5% CO2 atmosphere for one hour. Viability was determined by microscopic observation for trypan blue exclusion.

[6] = tested on: mammary carcinoma; assay: In vivo effect on murine mammary carcinoma; set-up: species or system BALB/c mouse; conditions: 1.76 mg (88 mg/kg) daily, three days, injected directly into the carcinoma
Experimental: One BALB/c mouse was given daily injections of 1.76 mg (88 mg/kg) Shiva 1 in PBS for three consecutive days as described in the foregoing examples.

[7] = tested on: Plasmodium falciparum in human red blood cells; conditions: for 3H-Hypoxanthine Uptake: 24 hours
[8] = S. intermedius 19930 viability in lytic peptide/lysozyme; conditions: Viability (%), lysozyme at ten times
[9] = tested on: Brucella abortus; type: in vivo, BALB/C mice; conditions: 0.176 mg/day for 4 days from day 12 post infection; sacrificed day 16; control 8.15 × 10^3
[10] = tested on: Brucella abortus; type: cell-based; conditions: 50 μM
[11] = tested on: E. coli E/2/64; assay: Lysozyme/cecropin synergism against E. coli (plate growth)
[12] = tested on: Pseudomonas syringae pv. tabaci; assay: Plant pathogen LD50 in cecropin SB-37/lysozyme; type: cell-based; conditions: incubation at 30° C.
[13] = tested on: Erwinia caratovora subsp. carotova; assay: Plant pathogen LD50 in cecropin SB-37/lysozyme; type: cell-based; conditions: incubation at 30° C.
[14] = tested on: Xanthomonas campestris pv. campestris; assay: Plant pathogen LD50 in cecropin SB-37/lysozyme; type: cell-based; conditions: incubation at 30° C.
[15] = tested on: Pseudomonas aeruginosa
[16] = tested on: S. intermedius 19930
[17] = tested on: Pseudomonas solanacearum
[18] = tested on: eucaryotes; assay: Lytic activity, general statements of the description; conditions: general statement, no test described
[19] = 100 μM, 2 × 10^6 cells per 0.5 ml, read-out: Percent Cytotoxicity
[20] = supernatant from unlabeled EL-4 cells cultured 30 minutes with 100 μM peptide used as medium for labeled EL-4, read-out: percent cytotoxicity

## CC[C@H](C)[C@H](NC(=O)CN)C(=O)NCC(=O)N[C@@H](C)C(=O)N[C@H](C(=O)N[C@@H](CC(C)C)C(=O)N[C@@H](CCCCN)C(=O)N[C@H](C(=O)N[C@@H](CC(C)C)C(=O)N[C@H](C(=O)N[C@H](C(=O)NCC(=O)N[C@@H](CC(C)C)C(=O)N1CCC[C@H]1C(=O)N[C@@H](C)C(=O)N[C@@H](CC(C)C)C(=O)N[C@H](C(=O)N[C@@H](CO)C(=O)N[C@@H](Cc1c[nH]c2ccccc12)C(=O)N[C@H](C(=O)N[C@@H](CCCCN)C(=O)N[C@@H](CCCNC(=N)N)C(=O)N[C@@H](CCCCN)C(=O)N[C@@H](CCCNC(=N)N)C(=O)N[C@@H](CCC(N)=O)C(=O)N[C@@H](CCC(N)=O)C(N)=O)[C@@H](C)CC)[C@@H](C)CC)[C@@H](C)O)[C@@H](C)O)C(C)C)C(C)C [Melittin, reference compound]
[1]; [19]
  cytotoxicity at 30 min, 100 μM: 105%
[1]; [20]
  cytotoxicity at 30 min, 100 μM: 107%
[2]; 10 μM
  Percent Cytotoxicity (chromium release vs detergent-lysed cells): 109.65%
[2]; 25 μM
  Percent Cytotoxicity (chromium release vs detergent-lysed cells): 106.65%
[2]; 50 μM
  Percent Cytotoxicity (chromium release vs detergent-lysed cells): 106.81%
[2]; 100 μM
  Percent Cytotoxicity (chromium release vs detergent-lysed cells): 102.43%
[3]; 5 μM
  Plate Count (Thousands): 260 Thousands
[3]; 50 μM
  Plate Count (Thousands): 0 Thousands

## CC[C@H](C)[C@H](NC(=O)CNC(=O)[C@H](CCC(N)=O)NC(=O)[C@H](CCCCN)NC(=O)[C@@H](NC(=O)[C@H](CCC(N)=O)NC(=O)[C@H](CCCCN)NC(=O)CNC(=O)[C@@H](NC(=O)[C@H](CCCNC(=N)N)NC(=O)[C@H](CC(=O)O)NC(=O)[C@@H](NC(=O)[C@H](CCCNC(=N)N)NC(=O)[C@H](CCCNC(=N)N)NC(=O)[C@H](Cc1ccccc1)NC(=O)[C@H](CC(C)C)NC(=O)[C@H](CCCNC(=N)N)NC(=O)[C@H](Cc1c[nH]c2ccccc12)NC(=O)[C@H](CCCNC(=N)N)NC(=O)[C@@H]1CCCN1C(=O)[C@@H](N)CCSC)[C@@H](C)CC)C(C)C)[C@@H](C)CC)C(=O)N[C@@H](CC(C)C)C(=O)N[C@@H](CCCNC(=N)N)C(=O)N[C@@H](C)C(=O)NCC(=O)N1CCC[C@H]1C(=O)N[C@@H](C)C(=O)N[C@H](C(=O)N[C@@H](C)C(=O)N[C@@H](CC(C)C)C(=O)N[C@H](C(=O)NCC(=O)N[C@@H](CC(=O)O)C(=O)N[C@@H](C)C(=O)N[C@@H](CCCNC(=N)N)C(=O)N[C@@H](C)C(=O)N[C@H](C(=O)NCC(N)=O)C(C)C)C(C)C)[C@@H](C)CC [Shiva 1] (H-MPRWRLFRRIDRVGKQIKQGILRAGPAIALVGDARAVG-NH2)
[4]
  LD50 (concentration for 50% reduction in number of infected Vero cells): about 9 μM
[5]; 10 μM
  viability: 85%
[5]; 25 μM
  viability: 60%
[5]; 50 μM
  viability: 50%
[5]; 100 μM
  viability: 10%
[1]; [19]
  cytotoxicity at 100 µM: 84.9%
[1]; 100 μM, 5 × 10^5 cells per 0.5 ml, read-out: Percent Cytotoxicity
  cytotoxicity at 100 µM: 98.7%
[1]; 100 μM, 10^6 cells per 0.5 ml, read-out: Percent Cytotoxicity
  cytotoxicity at 100 µM: 89.2%
[1]; [20]
  cytotoxicity: 42%
[2]; 10 μM
  Percent Cytotoxicity (chromium release vs detergent-lysed cells): 0.37%
[2]; 25 μM
  Percent Cytotoxicity (chromium release vs detergent-lysed cells): 16.7%
[2]; 50 μM
  Percent Cytotoxicity (chromium release vs detergent-lysed cells): 42.73%
[2]; 100 μM
  Percent Cytotoxicity (chromium release vs detergent-lysed cells): 82.35%
[6]
  immediate cause of death at autopsy: shock
[6]; one mouse
  outcome following the third injection: died almost immediately
other
  viability: 0%
  viability at 0.01 µM: 100%
  viability at 0.1 µM: 69.6%
  viability at 1 µM: 37.9%
  viability at 5 µM: 1.5%
  viability at 7.5 µM: 0.1%
[7]; 24-hour period, relative to untreated infected red blood cells
  LD50 (concentration for 50% reduction in 3H-hypoxanthine uptake): about 10 μM
[8]; peptide concentration 0.01 μM
  viability at 0.01 µM: 100%
[8]; peptide concentration 0.1 μM
  viability at 0.1 µM: 81.8%
[8]; peptide concentration 0.5 μM
  viability at 0.5 µM: 65%
[8]; peptide concentration 1.0 μM
  viability at 1 µM: 42.1%
[8]; peptide concentration 5.0 μM
  viability at 5 µM: 35.2%
[8]; peptide concentration 10. μM
  viability: 1.2%
[8]; peptide concentration 50. μM
  viability: 0%

## CN(C)[C@@H]1C(O)=C(C(N)=O)C(=O)[C@@]2(O)C(O)=C3C(=O)c4c(O)cccc4[C@@](C)(O)[C@H]3C[C@@H]12 [Tetracycline, tetracycline]
[9]
  Concentration of Brucella abortus in spleen tissue: 4.4 × 10^3 Number per gram of spleen

## Cecropin B: naturally occurring potent bacteriolytic peptide obtainable from insects; sequence in Table 1 (KWKVFKKIEKMGRNIRNGIVKAGPAIAVLGEAKAL; ends and bridges not checked; UniProt P01508 27-61, looked up)
[10]
  Results (growth of Brucella abortus): No growth
[7]; 1 μM, P. falciparum 0.0625 PPRC
  3H-Hypoxanthine Uptake: 380 cpm
[7]; 1 μM, P. falciparum 0.125 PPRC
  3H-Hypoxanthine Uptake: 565 cpm
[7]; 1 μM, P. falciparum 0.25 PPRC
  3H-Hypoxanthine Uptake: 1293 cpm
[7]; 1 μM, P. falciparum 0.5 PPRC
  3H-Hypoxanthine Uptake: 2860 cpm
[7]; 20 μM, P. falciparum 0.0625 PPRC
  3H-Hypoxanthine Uptake: 405 cpm
[7]; 20 μM, P. falciparum 0.125 PPRC
  3H-Hypoxanthine Uptake: 495 cpm
[7]; 20 μM, P. falciparum 0.25 PPRC
  3H-Hypoxanthine Uptake: 1066 cpm
[7]; 20 μM, P. falciparum 0.5 PPRC
  3H-Hypoxanthine Uptake: 2333 cpm
[7]; 200 μM, P. falciparum 0.0625 PPRC
  3H-Hypoxanthine Uptake: 25 cpm
[7]; 200 μM, P. falciparum 0.125 PPRC
  3H-Hypoxanthine Uptake: 20 cpm
[7]; 200 μM, P. falciparum 0.25 PPRC
  3H-Hypoxanthine Uptake: 40 cpm
[7]; 200 μM, P. falciparum 0.5 PPRC
  3H-Hypoxanthine Uptake: 50 cpm
[3]; 5 μM
  Plate Count (Thousands): 500 Thousands
[3]; 50 μM
  Plate Count (Thousands): 75 Thousands
[3]; 750 μM
  Plate Count (Thousands): 0 Thousands
[11]; 5 μM, 90 minutes at room temperature
  growth of E. coli (plate counts): no growth of E. coli
[11]; one nanomolar and one micromolar
  growth of E. coli: positive E. coli growth

## Lysozyme
[12]
  LD50: >1000 µM
[13]
  LD50: >1000 µM
[14]
  LD50: >1000 µM
[15]
  Viability (%): 0.4%
[15]; 0.01 µM
  Viability (%): 100%
[15]; 0.1 µM
  Viability (%): 82.2%
[15]; 1 µM
  Viability (%): 52.1%
[15]; 5 µM
  Viability (%): 7.9%
[15]; 7.5 µM
  Viability (%): 0.6%
[16]; 0.01 µM
  Viability (%): 100%
[16]; 0.1 µM
  Viability (%): 100%
[16]; 0.5 µM
  Viability (%): 81.3%
[16]; 1 µM
  Viability (%): 53%
[16]; 5 µM
  Viability (%): 49.5%
[17]
  LD50: >1000 µM

## cecropin A
[18]
  lytic activity compared with other lytic peptides: about as lytically active as cecropin B and SB-37
